# According to article PMC12562324, “Surfactin Structural Variants Differentially Modulate Plant Immune Responses” (Biomolecules, 2025):
# Assays:
# [1] = system: protoplasts isolated from roots of Arabidopsis thaliana Col-0; test: [ROS]intra burst in root protoplasts, DCFH-DA; format: cell-based; details: 10 µM, fold increase in fluorescence at 5 min; n = 12 from three independent experiments; Figure 2D
# Experimental: Two-week-old Arabidopsis thaliana seedling roots (from 27 mg seeds) were collected and were cut into 1–2 mm segments and incubated in a protoplasting solution (20 mM MES pH 5.7, 0.4 M mannitol, 20 mM KCl, 10 mM CaCl2, 0.1% (w/v) BSA, 1.5% (w/v) cellulase R10 (Duchefa Biochemie, Haarlem, The Netherlands), 0.4% (w/v) macerozyme R10 (Duchefa Chimie)) for 3 h at room temperature and in the dark. After incubation, 1 mL of solution A (154 mM NaCl, 5 mM KCl, 125 mM CaCl2, 4 mM MES, pH = 5.7) was added inside. The suspension was agitated gently and filtered by a 70 µm pore filter to remove extra root debris. Filtered suspension was centrifuged at 850 g for 6 min at room temperature, and the pelleted protoplasts were rinsed three times with solution B (4 mM MES pH 5.7, 154 mM NaCl, 125 mM CaCl2, 5 mM KCl) before being resuspended in solution C (2 mM MES pH 5.7, 0.5 M mannitol, 20 mM KCl, 2 mM CaCl2) at a working concentration of 1–2 × 10^5 cells per mL. For [ROS]intra measurements in protoplasts, protoplasts isolated from roots of Arabidopsis thaliana Col-0 plants were incubated for 10 min with 5 µM of DCFH-DA. Then, wells of black 96-well microplates (96 Flat Black-Greiner Bio-One^TM CellStar^TM, Fischer Scientific) were loaded with 150 µL of protoplasts solution per well. After the addition of 50 µL of four-times-concentrated treatment, the fluorescence was recorded every minute using a microplate reader with an excitation filter at 485 ± 20 nm and emission filter at 535 ± 25 nm. The data were processed as for the roots.
# Botrytis cinerea = test: Induced systemic resistance (ISR) against B. cinerea leaf infection after root treatment; format: in vivo; details: Arabidopsis thaliana Col-0, hydroponic, 10 µM at roots 24 h before leaf infection, scored 4 dpi vs mock (0.1% EtOH); n = 30 from two independent experiments; Figure 5
# Experimental: Plants were grown for 4 weeks in hydroponic conditions in Araponics systems containing a nutrient solution (0.25% (v/v) FLORAMICRO®, 0.25% (v/v) FLORABLOOM®, 0.25% (v/v) FLORAGRO®; General Hydroponics®, in volume ratio 1:1:1, as recommended by the manufacturer), with a photoperiod of 12 h and a temperature of 22 °C. Plants were then transferred into 10 mL vials filled with fresh nutrient solution and treated at the root level with CLPs or ethanol (mock treatment) to obtain final concentrations of 10 µM and 0.1%, respectively. After incubation for 24 h, plants were inoculated with Botrytis cinerea (Helotiales: Sclerotiniaceae) as the conidia solution. Spores were collected from B. cinerea grown on PDA plates for 4 weeks using a solution composed of 1.75 g/L KH2PO4; 0.74 g/L MgSO4; 4 g/L glucose, and 0.02% (v/v) Tween 20. After spore collection, the concentration was adjusted to 5 × 10^5 spores per mL, and spores were incubated at 30 °C for eight hours. Inoculation was conducted by inoculating a drop of 3 µL of conidia solution onto seven leaves per plant and fifteen plants per treatment. The number of spreading lesions was evaluated 96 h post infection.
# [2] = system: Arabidopsis thaliana roots; test: Intracellular NO (RNS burst) in roots, DAF-DA probe; format: cell-based; details: for NO accumulation in roots vs mock: 10 µM, DAF-DA fluorescence fold change at 20 min vs mock (DMSO 0.1%), n = 12 from three independent experiments, Figure 3A,B
# Experimental: For the detection of intracellular NO, roots were processed as described above and 200 µL sterile water was replaced by 200 µL 5 μM DAF-DA in a buffered solution (10 mM Tris/HCl, pH = 7.4). Roots were incubated at room temperature for 1 h in the absence of light and then washed 3 times with Tris/HCl (10 mM, pH = 7.4). The fluorescence emitted by DAF-DA was detected by excitation at 495 nm and emission at 515 nm. Experiments where NO was measured after pretreatment with the calcium channel blocker or calcium chelator included an additional step where LaCl3 (10 mM; Merck Chemicals SA, Hoeilaart, Belgium) or EGTA (1 mM; Merck Chemicals SA, Hoeilaart, Belgium) was added three minutes before treatments. Data were processed as described above for ROS. For NO measurements in protoplasts, the suspension was incubated in the same conditions before being distributed (50 µL) in microplate wells and treated with the CLPs at a 10 µM final concentration or with 0.1% DMSO as a mock.
# [3] = UPLC-MS retention on C18 as relative hydrophobicity; format: physicochemical; details: chromatographic, C18 (BEH C18 1.7 µm), water/ACN with 0.1% TFA gradient, 40 °C; order of homologue groups Srf, Liche, Pumi; Figure 1B,D,F
# Text: The purified material was freeze-dried (lyophilisator Martin Christ alpha 3–4 LSC BASIC) before storage. All the CLPs used in this research were freshly prepared from powder before each experiment. The concentration of Liche or Pumi was referred to the concentration of Srf and determined by MassHunter Workstation software (version B.09.00) after data collection from an Agilent Technologies 1290 Infinity (Santa Clara, CA, USA), with a C18 reversed-phase column (waters acquity premier BEH C18 1.7 µm 2.1 mm × 50 mm) being used at a flow rate of 0.6 mL/min and a temperature of 40 °C. […] That was coupled with a mass detector (Agilent Technologies 6530 Accurate-Mass Q-TOF LC/MS, Santa Clara, CA, USA) in positive mode, with the parameters set up as follows: drying gas temperature of 300 °C, drying gas of 8 L/min, nebulizer of 35 psi, sheath gas temperature of 350 °C, flow rate of sheath gas of 11 L/min, capillary voltage of 3.5 kV, nozzle voltage (expt) of 1 kV, fragmentor voltage of 175 V, skimmer voltage of 65 V, and octopole radiofrequency of 750 V. Accurate mass spectra were recorded in the m/z range of 100–1700. […]
Substance,[ROS]intra burst in root protoplasts vs mock [1],Leaf infection by B. cinerea (disease level) after root treatment (Botrytis cinerea),NO accumulation in roots vs mock [2],UPLC-MS elution order (relative hydrophobicity) [3],"Srf-induced RNS (NO burst) in roots after pretreatment with Ca2+ chelator EGTA ([2]; EGTA 1 mM added three minutes before treatment, over 50 min, n = 8 from two independent experiments, Figure 4D)","Srf-induced RNS (NO burst) in roots after pretreatment with Ca2+ channel blocker LaCl3 ([2]; LaCl3 10 mM added three minutes before treatment, over 50 min, n = 8 from two independent experiments, Figure 4C)"
lichenysin,significant boosting activity,significantly reduced leaf infection,,,,
pumilacidin,not active,no disease reduction,no impact,then Pumi,,
surfactin [Srf],significant boosting activity,significantly reduced leaf infection,fast accumulation of NO,eluted first,abolished,abolished
